# Measurements taken from ChEMBL document CHEMBL3044788, “α-(Substituted-phenoxyacetoxy)-α-heterocyclylmethylphosphonates: synthesis, herbicidal activity, inhibition on pyruvate dehydrogenase complex (PDHc), and application as postemergent herbicide against broadleaf weeds” (J Agric Food Chem, 2013).
# Tests used:
# Chenopodium album [1] = experiment: Herbicidal activity against Chenopodium album assessed as relative growth inhibition at 100 g/ha in greenhouse by post-emergence herbicidal activity assay; assay type: functional; details: read-out: GI
# Polygonum aviculare [2] = experiment: Herbicidal activity against Polygonum aviculare assessed as relative growth inhibition at 100 g/ha in greenhouse by post-emergence herbicidal activity assay; assay type: functional; details: read-out: GI
# Beta vulgaris [3] = experiment: Herbicidal activity against Beta vulgaris assessed as relative growth inhibition at 50 g/ha in greenhouse by post-emergence herbicidal activity assay; assay type: functional; details: read-out: GI
# Chenopodium album [4] = experiment: Herbicidal activity against Chenopodium album assessed as relative growth inhibition at 50 g/ha in greenhouse by post-emergence herbicidal activity assay; assay type: functional; details: read-out: GI
# Polygonum aviculare [5] = experiment: Herbicidal activity against Polygonum aviculare assessed as relative growth inhibition at 50 g/ha in greenhouse by post-emergence herbicidal activity assay; assay type: functional; details: read-out: GI
# [6] = Toxicity in orally dosed Rattus norvegicus (rat); assay type: organism-based; details: in vivo, po
# Polygonum aviculare [7] = experiment: Herbicidal activity against Polygonum aviculare assessed as relative growth inhibition at 600 g/ha in greenhouse by post-emergence herbicidal activity assay; assay type: functional; details: read-out: GI
# Beta vulgaris [8] = experiment: Herbicidal activity against Beta vulgaris assessed as relative growth inhibition at 450 g/ha in greenhouse by post-emergence herbicidal activity assay; assay type: functional; details: read-out: GI
# Polygonum aviculare [9] = experiment: Herbicidal activity against Polygonum aviculare assessed as relative growth inhibition at 450 g/ha in greenhouse by post-emergence herbicidal activity assay; assay type: functional; details: read-out: GI
# Amaranthus spinosus [10] = experiment: Herbicidal activity against Amaranthus spinosus assessed as relative growth inhibition at 300 g/ha in greenhouse by postemergence herbicidal activity assay; assay type: functional; details: post-emergence, read-out: GI
# Amaranthus blitum [11] = experiment: Herbicidal activity against Amaranthus blitum assessed as relative growth inhibition at 300 g/ha in greenhouse by post-emergence herbicidal activity assay; assay type: functional; details: read-out: GI
# Polygonum aviculare [12] = experiment: Herbicidal activity against Polygonum aviculare assessed as relative growth inhibition at 300 g/ha in greenhouse by post-emergence herbicidal activity assay; assay type: functional; details: read-out: GI
# Beta vulgaris [13] = experiment: Herbicidal activity against Beta vulgaris assessed as relative growth inhibition at 200 g/ha in greenhouse by post-emergence herbicidal activity assay; assay type: functional; details: read-out: GI
# [14] = test system: Brassica rapa subsp. oleifera; experiment: Herbicidal activity against Brassica rapa subsp. oleifera assessed as inhibition of rape root growth at 450 g/ha by postemergence herbicidal activity assay; assay type: functional; details: post-emergence, read-out: GI
# [15] = Toxicity in percutaneously dosed Rattus norvegicus (rat); assay type: organism-based; details: in vivo, topical or ocular
# Pisum sativum = experiment: Herbicidal activity against 2 to 3 leaf stage Pisum sativum assessed as inhibition of plant growth at 450 g/ha in greenhouse by postemergence herbicidal activity assay; assay type: functional; details: Lathyrus oleraceus, post-emergence; read-out: GI
# Brassica juncea = experiment: Herbicidal activity against two to three-leaf stage Brassica juncea assessed as inhibition of plant growth at 450 g/ha in greenhouse by post-emergence herbicidal activity assay; assay type: functional; details: read-out: GI
# Amaranthus spinosus [16] = experiment: Herbicidal activity against Amaranthus spinosus assessed as relative growth inhibition at 200 g/ha in greenhouse by postemergence herbicidal activity assay; assay type: functional; details: post-emergence, read-out: GI
# Amaranthus blitum [17] = experiment: Herbicidal activity against Amaranthus blitum assessed as relative growth inhibition at 200 g/ha in greenhouse by post-emergence herbicidal activity assay; assay type: functional; details: read-out: GI
# Polygonum aviculare [18] = experiment: Herbicidal activity against Polygonum aviculare assessed as relative growth inhibition at 200 g/ha in greenhouse by post-emergence herbicidal activity assay; assay type: functional; details: read-out: GI
# Amaranthus retroflexus [19] = experiment: Herbicidal activity against 2 to 3 leaf stage Amaranthus retroflexus assessed as inhibition of plant growth at 450 g/ha in greenhouse by postemergence herbicidal activity assay; assay type: functional; details: post-emergence, read-out: GI
# Chenopodium album [20] = experiment: Herbicidal activity against Chenopodium album assessed as relative growth inhibition at 900 g/ha in greenhouse by post-emergence herbicidal activity assay; assay type: functional; details: read-out: GI
# Oryza sativa [21] = experiment: Herbicidal activity against Oryza sativa (rice) assessed as relative growth inhibition at 600 g/ha in greenhouse by postemergence herbicidal activity assay; assay type: organism-based; details: in vivo, other
# Zea mays = experiment: Herbicidal activity against Zea mays (maize) assessed as relative growth inhibition at 600 g/ha in greenhouse by postemergence herbicidal activity assay; assay type: organism-based; details: in vivo, other
# Chenopodium album [22] = experiment: Herbicidal activity against Chenopodium album assessed as relative growth inhibition at 600 g/ha in greenhouse by post-emergence herbicidal activity assay; assay type: functional; details: read-out: GI
# Amaranthus retroflexus [23] = experiment: Herbicidal activity against 2 to 3 leaf stage Amaranthus retroflexus assessed as inhibition of plant growth at 150 g/ha in greenhouse by postemergence herbicidal activity assay; assay type: functional; details: post-emergence, read-out: GI
# [24] = test system: Brassica rapa subsp. oleifera; experiment: Herbicidal activity against two to three-leaf stage Brassica rapa subsp. oleifera assessed as inhibition of plant growth at 150 g/ha in greenhouse by postemergence herbicidal activity assay; assay type: functional; details: post-emergence, read-out: GI
# Abutilon theophrasti = experiment: Herbicidal activity against two to three-leaf stage Abutilon theophrasti (velvetleaf) assessed as inhibition of plant growth at 150 g/ha in greenhouse by post-emergence herbicidal activity assay; assay type: functional; details: read-out: GI
# Oryza sativa [25] = experiment: Herbicidal activity against Oryza sativa (rice) assessed as relative growth inhibition at 1200 g/ha in greenhouse by postemergence herbicidal activity assay; assay type: organism-based; details: in vivo, other
# Amaranthus spinosus [26] = experiment: Herbicidal activity against Amaranthus spinosus assessed as relative growth inhibition at 1200 g/ha in greenhouse by postemergence herbicidal activity assay; assay type: functional; details: post-emergence, read-out: GI
# Amaranthus blitum [27] = experiment: Herbicidal activity against Amaranthus blitum assessed as relative growth inhibition at 1200 g/ha in greenhouse by post-emergence herbicidal activity assay; assay type: functional; details: read-out: GI
# Polygonum aviculare [28] = experiment: Herbicidal activity against Polygonum aviculare assessed as relative growth inhibition at 1200 g/ha in greenhouse by post-emergence herbicidal activity assay; assay type: functional; details: read-out: GI
# Beta vulgaris [29] = experiment: Herbicidal activity against Beta vulgaris assessed as relative growth inhibition at 900 g/ha in greenhouse by post-emergence herbicidal activity assay; assay type: functional; details: read-out: GI
smiles,measurement,setting,value
COP(=O)(OC)C(OC(=O)COc1ccc(Cl)cc1Cl)c1ccco1 (stereo not drawn),inhibition of growth at 100 g/ha,Chenopodium album [1],90%
same,inhibition of growth at 100 g/ha,Polygonum aviculare [2],83%
same,inhibition of growth at 50 g/ha,Beta vulgaris [3],80%
same,inhibition of growth at 50 g/ha,Chenopodium album [4],80%
same,inhibition of growth at 50 g/ha,Polygonum aviculare [5],70%
same,LD50,[6],2700 mg/kg
same,inhibition of growth at 600 g/ha,Polygonum aviculare [7],100%
same,inhibition of growth at 450 g/ha,Beta vulgaris [8],100%
same,inhibition of growth at 450 g/ha,Polygonum aviculare [9],100%
same,inhibition of growth at 300 g/ha,Amaranthus spinosus [10],98%
same,inhibition of growth at 300 g/ha,Amaranthus blitum [11],100%
same,inhibition of growth at 300 g/ha,Polygonum aviculare [12],91%
same,inhibition of growth at 200 g/ha,Beta vulgaris [13],98%
same,inhibition of growth at 450 g/ha,[14],92%
same,LD50,[15],> 2000 mg/kg
same,inhibition of growth at 450 g/ha,Pisum sativum,90%
same,inhibition of growth at 450 g/ha,Brassica juncea,96.5%
same,inhibition of growth at 200 g/ha,Amaranthus spinosus [16],98%
same,inhibition of growth at 200 g/ha,Amaranthus blitum [17],100%
same,inhibition of growth at 200 g/ha,Polygonum aviculare [18],85%
same,inhibition of growth at 450 g/ha,Amaranthus retroflexus [19],100%
same,inhibition of growth at 900 g/ha,Chenopodium album [20],100%
same,growth inhibition (GI),Oryza sativa [21],0%
same,growth inhibition (GI),Zea mays,0%
same,inhibition of growth at 600 g/ha,Chenopodium album [22],100%
same,inhibition of growth at 150 g/ha,Amaranthus retroflexus [23],95%
same,inhibition of growth at 150 g/ha,[24],95%
same,inhibition of growth at 150 g/ha,Abutilon theophrasti,95%
same,growth inhibition (GI),Oryza sativa [25],20%
same,inhibition of growth at 1200 g/ha,Amaranthus spinosus [26],100%
same,inhibition of growth at 1200 g/ha,Amaranthus blitum [27],100%
same,inhibition of growth at 1200 g/ha,Polygonum aviculare [28],100%
same,inhibition of growth at 900 g/ha,Beta vulgaris [29],100%
